Records with an inconclusive call do not appear.
What follows are compounds tested on D54 LucT luciferase reporter counterscreen, luminescence, 24 h (assay: reporter signal increase, D54 LucT cells – cell-based, luminescence, cherry pick, counter-screen for N-linked glycosylation inhibitor project, dose response (AID 624404)).

| Compound | AC35 [nM] |
| --- | --- |
| COc1cc2c(cc1OC)C(=O)N1[C@H]3c4cc(Cl)ccc4OC[C@@H]3[C@H](c3ccccc3)[C@]1(C)C(=O)N2 | 449 |
| Cn1cc(C(=O)N/N=C/C(Br)=C/c2ccccc2)ccc1=O | 3760 |
| O=C(NCCc1ccccc1)C1c2ccccc2C(=O)N1Cc1cccs1 (stereo unspecified) | 1400 |
| C[C@@H](NC(=O)c1ncn2c1c(=O)[nH]c1ccc(Br)cc12)c1ccccc1 | 210 |
| Cc1ccc(-n2c(SCC(=O)NCCC3=CCCCC3)nc3n[nH]c(C)c3c2=N)cc1Cl | 39.9 |
| COc1ccc(CNC(=O)c2cccc3c(-c4cccnc4)coc23)cc1OC | 2600 |
| COc1ccc(/C=N\NC(=O)c2sccc2C)cc1Cn1nc(C)cc1C | 280 |
| COc1cccc(C(NC(C)=O)c2nc(-c3ccccc3C)cs2)c1 (stereo unspecified) | 678 |
| COc1cc2c(cc1OC)C(=O)N1[C@H]3c4ccccc4OC[C@@H]3[C@H](c3ccccc3)[C@]1(C)C(=O)N2 | 196 |
| CCc1nc2ccc(C(=O)NCCc3c[nH]c4ccccc34)cn2c1N(C=O)CCC(C)C | 645 |
| COc1cccc(-c2nn(C)c3sc(C(=O)NCc4ccco4)cc23)c1 | 3350 |
| COC(=O)c1c(NC(=O)CN2C(=O)NC3(CCC(C)CC3)C2=O)sc2c1CCC2 (stereo unspecified) | 592 |
| CC(NC(=O)c1ccc2ccccc2n1)c1ccc(S(N)(=O)=O)cc1 (stereo unspecified) | 977 |
| CN1C(=O)CSc2ccc(NC(=O)Nc3ccccn3)cc21 | 828 |
| O=C(C[C@@H]1C/C=C/CC[C@H](Cc2ccc(F)cc2)C(=O)OC[C@@H](Cc2ccccc2)NC1=O)N[C@H](CO)Cc1ccccc1 | 4640 |
| COc1cc(C(=O)Nc2cc3c(cc2N2CCCCC2)n(C)c(=O)n3C)cc(OC)c1OC | 96.4 |
| C=CCNc1nc2cc(-c3ccccc3C)sc2c(=O)n1C | 1110 |
| CCn1c(=S)[nH]c2cc(S(=O)(=O)N3CCCCC3)ccc21 | 1250 |
| COC(=O)c1ccc(C(=O)NC2CC(C)(C)Cc3c2cnn3-c2ccc(F)cc2)nc1 (stereo unspecified) | 3950 |
| COc1ccc(-c2cc(C(=O)NCC(c3ccccc3)N(C)C)c3ccccc3n2)cc1OC (stereo unspecified) | 1100 |
| COc1ccc(NC(=O)C2Cc3c(-c4cccc(NC(C)=O)c4)ccnc3O2)cc1 (stereo unspecified) | 18.9 |
| COc1cc2c(cc1OC)C(=O)N1[C@H]3c4cc(C)ccc4OC[C@@H]3[C@H](c3ccccc3)[C@]1(C)C(=O)N2 | 131 |
| Cn1c(=O)[nH]c(=O)c2c1nc(SCC(N)=O)n2Cc1cccc(Br)c1 | 421 |
| COc1ccc(CCn2c(O)c(C=NCc3ccc4c(c3)OCO4)c(=O)[nH]c2=O)cc1OC | 678 |
| CCOc1cc(C(=O)Nc2ccc(N3CCOCC3)cc2)cc(Br)c1OC | 3660 |
| CC(=O)Nc1sc(NC(=O)c2ccccc2)nc1-c1cccs1 | 8340 |

| Compound | AC35 [nM] |
| --- | --- |
| COc1ccc(Nc2nc(-c3sc(C)nc3C)cs2)c(OC)c1 | 75 |
| COC(=O)c1cc(=O)n(-c2ccc(F)cc2)c(=Nc2ccc(F)cc2)s1 | 25.1 |
| COc1ccc(/C=C2\CC/C(=C\c3ccc(OC)c(OC)c3)C2=O)cc1OC | 155 |
| CC1(C)Cc2c(c(N3CCOCC3)nc3snc(N)c23)CO1 | 1200 |
| Cc1ccc(C(=O)NC(=C(Cl)Cl)S(=O)(=O)c2ccc(Cl)cc2)cc1 | 12700 |
| O=C(CNC(=O)c1ccc(Br)o1)Nc1cccc(-c2cnc3ccccc3n2)c1 | 3530 |
| CCOC(=O)c1c(C)nc2c(c1-c1cc(OC)c(OC)c(OC)c1)C(=O)c1ccccc1-2 | 514 |
| COC(=O)[C@@H]1C[C@H]1[C@@H](NP(=O)(c1ccccc1)c1ccccc1)c1ccccc1 | 3100 |
| Cc1ccc(C(=O)Nc2ccccc2C(=O)N2CC(C)OC(C)C2)cc1 (stereo unspecified) | 625 |
| Cc1ccc(C2=NN(C(=O)CSc3nccn3C)C(c3ccco3)C2)cc1 (stereo unspecified) | 323 |
| C=CCOc1ccc(/C=C2\SC(N3CCCCC3)=NC2=O)cc1 | 8.9 |
| c1ccc(-c2cc(-c3nnc4n3N=C(c3ccc5ccccc5c3)CS4)[nH]n2)cc1 | 205 |
| Cc1ccc(C)c(Cn2nnc3c(=O)[nH]c(C4CCN(C(=O)c5ccco5)CC4)nc32)c1 | 852 |
| COc1ccccc1NS(=O)(=O)c1ccc(C(=O)Nc2ncccc2O)cc1 | 8860 |
| Cc1cccc(NC(=O)Nc2cccc(C#N)c2)n1 | 467 |
| O=C(NCCN1C(=O)S/C(=C\c2ccccc2Cl)C1=O)C1=COCCO1 | 4980 |
| Cn1cccc1/C=C1\SC(=Nc2ccccc2)NC1=O | 473 |
| COc1ccc([C@@H]2[C@@H]3C(=O)N(C(C)(C)C)C(=O)[C@@H]3[C@]3(Cc4ccccc4)C(=O)N(c4cccc(Br)c4)C(=O)N23)cc1 | 762 |
| COc1cc(/C=N/n2cnc3scc(-c4cccs4)c3c2=O)cc(OC)c1OC | 177 |
| Cc1ccc(N2CC(C(=O)Nc3ccc(S(=O)(=O)N4CCOCC4)cc3)CC2=O)cc1Cl (stereo unspecified) | 2530 |
| CCOC(=O)c1[nH]c(C)c(C(=O)c2ccc(C)cc2)c1C | 1100 |
| O=S(=O)([N-]c1nc2ccccc2nc1-n1cc[n+](Cc2ccccc2)c1)c1ccc(Cl)cc1 | 89.8 |
| Cc1ccc(NC2=NC3(CCCC3)N=C(N)N2)c(C)c1 | 7540 |
| CCOC(=O)N1CCN(C(=O)c2cc(-c3ccncc3)nc3ccccc23)CC1 | 5630 |
| Cc1ccc(C(=O)N/C(=C/c2ccco2)C(=O)NCCc2c[nH]c3ccccc23)cc1 | 1750 |
| Nc1nc(Nc2ccccc2)sc1C(=O)c1ccccc1 | 272 |

| Compound | AC35 [nM] |
| --- | --- |
| Cc1ccc(-c2nc3ncccc3o2)cc1NC(=O)c1ccc([N+](=O)[O-])o1 | 505 |
| O=C(Nc1cc(Cl)ccc1N1CCOCC1)c1ccc(N2CCCC2=O)cc1 | 212 |
| O=C(Nc1cc(=O)[nH]c(=O)[nH]1)c1cc(Cl)ccc1Cl | 3150 |
| Cc1cc(C)cc(-n2c3ccc(NC(=O)Cc4cccc5ccccc45)cc3c(=O)n2C)c1 | 5010 |
| O=C(/C=C/c1cccc(Br)c1)c1ccc2c(c1)OCO2 | 951 |
| CCCCC[C@H](O)/C=C/[C@@H]1[C@@H](C/C=C\CCCC(=O)OC)[C@@H](O)C[C@H]1O | < 1.2 |
| Cc1ccc(S/C=C\C(=O)c2ccccc2)cc1 | 135 |
| Cc1ccc2c(c1)cc(CN(C(=O)N1CCOCC1)C1CCCC1)c1nnnn12 | 2460 |
| CC(=O)Nc1ccc(C(=O)N/N=C/c2ccccc2OCc2ccccc2)cc1 | 4360 |
| COCCCNC(=O)Cc1c(C)c2c(cc(C)c3c(C(C)(C)C)coc32)oc1=O | 156 |
| CCOC(=O)c1[nH]c(C)c(C(=O)Nc2cc(OC)ccc2OC)c1C | 345 |
| CC(=O)Nc1ccc2cc3ccc(NC(C)=O)cc3nc2c1 | 838 |
| CC(C)CCNC(=O)CCCOc1cc(=O)n(C)c2ccccc12 | 2260 |
| O=C(N/N=C/c1ccc(F)cc1)c1sccc1OCc1ccc(F)cc1 | 1580 |
| NNC(=O)c1ccc2nc(-c3ccc(Br)cc3)cn2c1 | 780 |
| Cc1ccnc(NC(=O)CCCOc2cc(=O)n(C)c3ccccc23)c1 | 3220 |
| CCOC(=O)c1c(C)[nH]c(-c2csc(N)n2)c1C | 787 |
| Nc1ccc(C(=O)Nc2ccccc2N)cc1 | 744 |
| CC(C)Sc1ccccc1C(=O)Nc1ccc2c(c1)n(C)c(=O)n2C | 1820 |
| COc1cccc(CNC(=O)COC(=O)c2ccc(-c3ccc(O)cc3)cc2)c1 | 3650 |
| O=C(C=Cc1ccccc1F)c1ccccc1 | 199 |
| C=C(C)Cn1c2ccc(NC(=O)CCc3cccc(Cl)c3)cc2c(=O)n1C | 4260 |
| CC(=O)OC1CC[C@]2(C#N)[C@H]3CC[C@]4(C)[C@H](C5C=CC(=O)O5)CCC4(O)C3CCC2(O)C1 (stereo partly specified) | 2850 |
| C[C@]1(O)CC(=O)C=C[C@H]1Nc1ccccc1 | 1970 |
